Values after ≈ are worked out from the molar mass of the structure shown.

The nature of the data set: Measurement of solubility in buffer at pH 6.5. In kind it is physicochemical. Particulars: aqueous buffer, kinetic from dmso stock; PBS buffer pH 6.5, shaken 24h at rt, LC-MSMS; read-out: Solubility of example compounds at pH 6.5. As for the experimental part: Measurement of Solubility in Buffer at pH 6.5 2-4 mg of the test compound are dissolved in DMSO to reach a concentration of 50 g/L (solution A). To 10 μl of this solution 960 μl PBS buffer pH 6.5 are added (final concentration: 515 μg/1); the mixture is shaken for 24h at rt in a 96 well plate. An aliquot is centrifuged at 42000 rpm für 30 min. The supernatant is diluted with acetonitrile/water (8:2) 1:10 and 1:1000 resp. This diluted samples are analyzed by LC-MSMS. Calibration: 10 μl of solution A are diluted with 823 μl DMSO (final concentration: 600 μg/ml), which is further diluted with acetonitrile/water 8:2 by a factor of 100 (provides solution B). The calibration curve is obtained from solution B by further diluting with acetonitrile/water 8:2 with target concentrations of 1.2-12-60-600 ng/ml and injecting these four solutions for MS measurement. PBS-Puffer: 6.18 g sodium chloride and 3.96 g sodium dihydrogen phosphate are dissolved in 1 L aqua dist., the pH is adjusted to 6.5 with 1N sodium hydroxide. The following conditions were used for quantification: Autosampler without auto inject ahead setting, column: Waters OASIS HLB, 2,1×20 mm, 25μ, column temperature: 30° C., flow rate: 2.5 mL/min, injected volume: 2 μl, Splitter (before MS) 1:20.
The term solubility denotes how much of the substance goes into solution per volume. In the case of `N#CC1(N(COC(=O)O[C@H]2CCC[C@H]2OC(=O)/C=C/C(=O)O)C(=O)c2cc(-c3cnn(-c4c(Cl)cc(C(F)(C(F)(F)F)C(F)(F)F)cc4OC(F)(F)F)c3)ccc2Cl)CC1` (relative stereo) [Example 6, (2E)-4-({(rel 1R,2S)-2-[({[(2-chloro-5-{1-[2-chloro-4-(1,1,1,2,3,3,3-heptafluoropropan-2-yl)-6-(trifluoromethoxy)phenyl]-1H-pyrazol-4-yl}benzoyl)(1-cyanocyclopropyl)amino]methoxy}carbonyl)oxy]cyclopentyl}oxy)-4-oxobut-2-enoic Acid], the solubility at 24 h was determined as 4 µg/mL (≈ 4.42 µM). Under `N#CC1(N(COC(=O)O[C@H]2CCC[C@H]2OC(=O)CCC(=O)O)C(=O)c2cc(-c3cnn(-c4c(Cl)cc(C(F)(C(F)(F)F)C(F)(F)F)cc4OC(F)(F)F)c3)ccc2Cl)CC1` (relative stereo) [Example 7, 4-({(rel 1R,2S)-2-[({[(2-chloro-5-{1-[2-chloro-4-(1,1,1,2,3,3,3-heptafluoropropan-2-yl)-6-(trifluoromethoxy)phenyl]-1H-pyrazol-4-yl}benzoyl)(1-cyanocyclopropyl)amino]methoxy}carbonyl)oxy]cyclopentyl}oxy)-4-oxobutanoic Acid] stands 3 µg/mL (≈ 3.31 µM). Take `N#CC1(N(COC(=O)OCCOC(=O)CCC(=O)O)C(=O)c2cc(-c3cnn(-c4c(Cl)cc(C(F)(C(F)(F)F)C(F)(F)F)cc4OC(F)(F)F)c3)ccc2Cl)CC1` [Example 3, 1-(2-Chloro-5-{1-[2-chloro-4-(1,1,1,2,3,3,3-heptafluoropropan-2-yl)-6-(trifluoromethoxy)phenyl]-1H-pyrazol-4-yl}phenyl)-2-(1-cyanocyclopropyl)-1,5,10-trioxo-4,6,9-trioxa-2-azatridecan-13-oic Acid]: the solubility at 24 h was 6 µg/mL (≈ 6.92 µM). For the molecule `CC(C)(COC(=O)CCC(=O)O)COC(=O)OCN(C(=O)c1cc(-c2cnn(-c3c(Cl)cc(C(F)(C(F)(F)F)C(F)(F)F)cc3OC(F)(F)F)c2)ccc1Cl)C1(C#N)CC1` [Example 5, 1-(2-Chloro-5-{1-[2-chloro-4-(1,1,1,2,3,3,3-heptafluoropropan-2-yl)-6-(trifluoromethoxy)phenyl]-1H-pyrazol-4-yl}phenyl)-2-(1-cyanocyclopropyl)-8,8-dimethyl-1,5,11-trioxo-4,6,10-trioxa-2-azatetradecan-14-oic Acid], the solubility at 24 h was determined as 2 µg/mL (≈ 2.2 µM). On to `CC(C)(COCCOC(=O)OCN(C(=O)c1cc(-c2cnn(-c3c(Cl)cc(C(F)(C(F)(F)F)C(F)(F)F)cc3OC(F)(F)F)c2)ccc1Cl)C1(C#N)CC1)C(=O)O` [Example 8, 1-(2-chloro-5-{1-[2-chloro-4-(1,1,1,2,3,3,3-heptafluoropropan-2-yl)-6-(trifluoromethoxy)phenyl]-1H-pyrazol-4-yl}phenyl)-2-(1-cyanocyclopropyl)-11,11-dimethyl-1,5-dioxo-4,6,9-trioxa-2-azadodecan-12-oic Acid], for which the solubility at 24 h stood at 1 µg/mL (≈ 1.15 µM). Turning to `CC(C)(CC(=O)OCCOC(=O)OCN(C(=O)c1cc(-c2cnn(-c3c(Cl)cc(C(F)(C(F)(F)F)C(F)(F)F)cc3OC(F)(F)F)c2)ccc1Cl)C1(C#N)CC1)C(=O)O` [Example 9, 1-(2-Chloro-5-{1-[2-chloro-4-(1,1,1,2,3,3,3-heptafluoropropan-2-yl)-6-(trifluoromethoxy)phenyl]-1H-pyrazol-4-yl}phenyl)-2-(1-cyanocyclopropyl)-12,12-dimethyl-1,5,10-trioxo-4,6,9-trioxa-2-azatridecan-13-oic Acid], the solubility at 24 h is 5 µg/mL (≈ 5.58 µM). Under `N#CC1(N(COC(=O)O[C@H]2CCC[C@@H]2OC(=O)/C=C/C(=O)O)C(=O)c2cc(-c3cnn(-c4c(Cl)cc(C(F)(C(F)(F)F)C(F)(F)F)cc4OC(F)(F)F)c3)ccc2Cl)CC1` [Example 10, (2E)-4-({(1S,2S)-2-[({[(2-chloro-5-{1-[2-chloro-4-(1,1,1,2,3,3,3-heptafluoropropan-2-yl)-6-(trifluoromethoxy)phenyl]-1H-pyrazol-4-yl}benzoyl)(1-cyanocyclopropyl)amino]methoxy}carbonyl)oxy]cyclopentyl}oxy)-4-oxobut-2-enoic Acid] stands 3 µg/mL (≈ 3.31 µM). Under `N#CC1(N(COC(=O)O[C@H]2CCC[C@@H]2OC(=O)CCC(=O)O)C(=O)c2cc(-c3cnn(-c4c(Cl)cc(C(F)(C(F)(F)F)C(F)(F)F)cc4OC(F)(F)F)c3)ccc2Cl)CC1` [Example 11, 4-({(1S,2S)-2-[({[(2-chloro-5-{1-[2-chloro-4-(1,1,1,2,3,3,3-heptafluoropropan-2-yl)-6-(trifluoromethoxy)phenyl]-1H-pyrazol-4-yl}benzoyl)(1-cyanocyclopropyl)amino]methoxy}carbonyl)oxy]cyclopentyl}oxy)-4-oxobutanoic Acid] stands 2 µg/mL (≈ 2.2 µM); under `N#CC1(N(COC(=O)OCCOC(=O)CCCC(=O)O)C(=O)c2cc(-c3cnn(-c4c(Cl)cc(C(F)(C(F)(F)F)C(F)(F)F)cc4OC(F)(F)F)c3)ccc2Cl)CC1` [Example 12, 1-(2-Chloro-5-{1-[2-chloro-4-(1,1,1,2,3,3,3-heptafluoropropan-2-yl)-6-(trifluoromethoxy)phenyl]-1H-pyrazol-4-yl}phenyl)-2-(1-cyanocyclopropyl)-1,5,10-trioxo-4,6,9-trioxa-2-azatetradecan-14-oic Acid], 3 µg/mL (≈ 3.4 µM); under `N#CC1(N(COC(=O)OCCOC(=O)C2(C(=O)O)CC2)C(=O)c2cc(-c3cnn(-c4c(Cl)cc(C(F)(C(F)(F)F)C(F)(F)F)cc4OC(F)(F)F)c3)ccc2Cl)CC1` [Example 13, 1-[10-(2-Chloro-5-{1-[2-chloro-4-(1,1,1,2,3,3,3-heptafluoropropan-2-yl)-6-(trifluoromethoxy)phenyl]-1H-pyrazol-4-yl}phenyl)-9-(1-cyanocyclopropyl)-6,10-dioxo 2,5,7-trioxa-9-azadecanan-1-oyl]cyclopropane-1-carboxylic Acid], 7 µg/mL (≈ 7.96 µM).

For the molecule `N#CC1(N(COC(=O)O[C@H]2CC[C@@H](OC(=O)/C=C/C(=O)O)CC2)C(=O)c2cc(-c3cnn(-c4c(Cl)cc(C(F)(C(F)(F)F)C(F)(F)F)cc4OC(F)(F)F)c3)ccc2Cl)CC1` [Example 14, (2E)-4-({cis-4-[({[(2-chloro-5-{1-[2-chloro-4-(1,1,1,2,3,3,3-heptafluoropropan-2-yl)-6-(trifluoromethoxy)phenyl]-1H-pyrazol-4-yl}benzoyl)(1-cyanocyclopropyl)amino]methoxy}carbonyl)oxy]cyclohexyl}oxy)-4-oxobut-2-enoic Acid], the solubility at 24 h was determined as 19 µg/mL (≈ 20.7 µM).

For `N#CC1(N(COC(=O)O[C@H]2CC[C@@H](OC(=O)CCC(=O)O)CC2)C(=O)c2cc(-c3cnn(-c4c(Cl)cc(C(F)(C(F)(F)F)C(F)(F)F)cc4OC(F)(F)F)c3)ccc2Cl)CC1` [Example 15, 4-({cis-4-[({[(2-chloro-5-{1-[2-chloro-4-(1,1,1,2,3,3,3-heptafluoropropan-2-yl)-6-(trifluoromethoxy)phenyl]-1H-pyrazol-4-yl}benzoyl)(1-cyanocyclopropyl)amino]methoxy}carbonyl)oxy]cyclohexyl}oxy)-4-oxobutanoic Acid], the solubility at 24 h amounted to 1 µg/mL (≈ 1.09 µM). Under `N#CC1(N(COC(=O)O[C@H]2CC[C@H](OC(=O)/C=C/C(=O)O)CC2)C(=O)c2cc(-c3cnn(-c4c(Cl)cc(C(F)(C(F)(F)F)C(F)(F)F)cc4OC(F)(F)F)c3)ccc2Cl)CC1` [Example 16, (2E)-4-({trans-4-[({[(2-chloro-5-{1-[2-chloro-4-(1,1,1,2,3,3,3-heptafluoropropan-2-yl)-6-(trifluoromethoxy)phenyl]-1H-pyrazol-4-yl}benzoyl)(1-cyanocyclopropyl)amino]methoxy}carbonyl)oxy]cyclohexyl}oxy)-4-oxobut-2-enoic Acid] stands 2 µg/mL (≈ 2.18 µM). On to `N#CC1(N(COC(=O)O[C@H]2CC[C@@H](C(=O)O)CC2)C(=O)c2cc(-c3cnn(-c4c(Cl)cc(C(F)(C(F)(F)F)C(F)(F)F)cc4OC(F)(F)F)c3)ccc2Cl)CC1` [Example 17, Cis-4-[({[(2-Chloro-5-{1-[2-chloro-4-(1,1,1,2,3,3,3-heptafluoropropan-2-yl)-6-(trifluoromethoxy)phenyl]-1H-pyrazol-4-yl}benzoyl)(1-cyanocyclopropyl)amino]methoxy}carbonyl)oxy]cyclohexane-1-carboxylic Acid], for which the solubility at 24 h was found to be 2 µg/mL (≈ 2.35 µM). Under `N#CC1(N(COC(=O)O[C@H]2CC[C@H](C(=O)O)CC2)C(=O)c2cc(-c3cnn(-c4c(Cl)cc(C(F)(C(F)(F)F)C(F)(F)F)cc4OC(F)(F)F)c3)ccc2Cl)CC1` [Example 18, Trans-4-[({[(2-chloro-5-{1-[2-chloro-4-(1,1,1,2,3,3,3-heptafluoropropan-2-yl)-6-(trifluoromethoxy)phenyl]-1H-pyrazol-4-yl}benzoyl)(1-cyanocyclopropyl)amino]methoxy}carbonyl)oxy]cyclohexane-1-carboxylic Acid] stands 3 µg/mL (≈ 3.53 µM).

As to `N#CC1(N(COC(=O)OCC(=O)O)C(=O)c2cc(-c3cnn(-c4c(Cl)cc(C(F)(C(F)(F)F)C(F)(F)F)cc4OC(F)(F)F)c3)ccc2Cl)CC1` [Example 19, [({[(2-chloro-5-{1-[2-chloro-4-(1,1,1,2,3,3,3-heptafluoropropan-2-yl)-6-(trifluoromethoxy)phenyl]-1H-pyrazol-4-yl}benzoyl)(1-cyanocyclopropyl)amino]methoxy}carbonyl)oxy]acetic Acid], the solubility at 24 h was found to be 42 µg/mL (≈ 53.8 µM).
